Laboratory results published in patent EP4745135A1 (Gluetacs Therapeutics (Shanghai) Co., Ltd., priority 2023, dated 2025).

Key:
[1] = molecular target: T1, CK1α (Homo sapiens, UniProt P48729+Q96SW2); test: Western blot, degradation of substrate protein in hPBMCs; assay type: cell-based
T1 construct: effects of the compounds of the present disclosure on the expression of target proteins in cells; endogenous in cells; host or cells: human PBMCs (Milecell Biotechnologies)

[2] = molecular target: T2, WEE1 (Homo sapiens, UniProt P30291+Q96SW2); test: as above; assay type: cell-based
T2 construct: effects of the compounds of the present disclosure on the expression of target proteins in cells; endogenous in cells; host or cells: human PBMCs (Milecell Biotechnologies)
T2 sequence (P30291 whole entry): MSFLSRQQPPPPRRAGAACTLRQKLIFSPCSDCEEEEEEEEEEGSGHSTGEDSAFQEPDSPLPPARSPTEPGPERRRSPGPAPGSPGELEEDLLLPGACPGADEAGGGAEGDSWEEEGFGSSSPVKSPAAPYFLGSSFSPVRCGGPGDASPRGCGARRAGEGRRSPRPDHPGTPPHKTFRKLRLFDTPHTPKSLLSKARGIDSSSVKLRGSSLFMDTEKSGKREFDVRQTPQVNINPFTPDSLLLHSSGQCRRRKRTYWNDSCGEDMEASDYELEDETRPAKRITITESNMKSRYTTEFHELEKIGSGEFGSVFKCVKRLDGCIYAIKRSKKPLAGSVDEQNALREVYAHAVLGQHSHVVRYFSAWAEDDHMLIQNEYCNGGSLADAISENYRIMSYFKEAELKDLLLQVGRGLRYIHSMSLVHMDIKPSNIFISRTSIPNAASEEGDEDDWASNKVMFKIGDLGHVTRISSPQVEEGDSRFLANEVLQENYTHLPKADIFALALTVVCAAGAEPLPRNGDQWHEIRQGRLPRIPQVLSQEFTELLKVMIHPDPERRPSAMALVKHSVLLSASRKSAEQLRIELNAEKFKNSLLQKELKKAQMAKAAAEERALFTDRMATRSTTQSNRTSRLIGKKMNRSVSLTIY
T2 sequence (Q96SW2 whole entry): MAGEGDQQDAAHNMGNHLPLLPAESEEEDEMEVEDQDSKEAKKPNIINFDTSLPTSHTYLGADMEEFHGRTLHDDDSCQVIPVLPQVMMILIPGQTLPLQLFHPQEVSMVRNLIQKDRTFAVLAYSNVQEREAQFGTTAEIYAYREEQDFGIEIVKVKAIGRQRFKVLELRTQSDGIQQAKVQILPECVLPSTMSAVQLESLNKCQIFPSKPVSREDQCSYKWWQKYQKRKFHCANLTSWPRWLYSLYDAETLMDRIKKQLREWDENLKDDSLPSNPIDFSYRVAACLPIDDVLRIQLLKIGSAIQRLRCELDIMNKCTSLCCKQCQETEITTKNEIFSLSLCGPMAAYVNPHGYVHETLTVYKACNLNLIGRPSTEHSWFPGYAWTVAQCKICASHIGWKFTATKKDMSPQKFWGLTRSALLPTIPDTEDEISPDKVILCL
T2 sequence (Q16531 whole entry partner): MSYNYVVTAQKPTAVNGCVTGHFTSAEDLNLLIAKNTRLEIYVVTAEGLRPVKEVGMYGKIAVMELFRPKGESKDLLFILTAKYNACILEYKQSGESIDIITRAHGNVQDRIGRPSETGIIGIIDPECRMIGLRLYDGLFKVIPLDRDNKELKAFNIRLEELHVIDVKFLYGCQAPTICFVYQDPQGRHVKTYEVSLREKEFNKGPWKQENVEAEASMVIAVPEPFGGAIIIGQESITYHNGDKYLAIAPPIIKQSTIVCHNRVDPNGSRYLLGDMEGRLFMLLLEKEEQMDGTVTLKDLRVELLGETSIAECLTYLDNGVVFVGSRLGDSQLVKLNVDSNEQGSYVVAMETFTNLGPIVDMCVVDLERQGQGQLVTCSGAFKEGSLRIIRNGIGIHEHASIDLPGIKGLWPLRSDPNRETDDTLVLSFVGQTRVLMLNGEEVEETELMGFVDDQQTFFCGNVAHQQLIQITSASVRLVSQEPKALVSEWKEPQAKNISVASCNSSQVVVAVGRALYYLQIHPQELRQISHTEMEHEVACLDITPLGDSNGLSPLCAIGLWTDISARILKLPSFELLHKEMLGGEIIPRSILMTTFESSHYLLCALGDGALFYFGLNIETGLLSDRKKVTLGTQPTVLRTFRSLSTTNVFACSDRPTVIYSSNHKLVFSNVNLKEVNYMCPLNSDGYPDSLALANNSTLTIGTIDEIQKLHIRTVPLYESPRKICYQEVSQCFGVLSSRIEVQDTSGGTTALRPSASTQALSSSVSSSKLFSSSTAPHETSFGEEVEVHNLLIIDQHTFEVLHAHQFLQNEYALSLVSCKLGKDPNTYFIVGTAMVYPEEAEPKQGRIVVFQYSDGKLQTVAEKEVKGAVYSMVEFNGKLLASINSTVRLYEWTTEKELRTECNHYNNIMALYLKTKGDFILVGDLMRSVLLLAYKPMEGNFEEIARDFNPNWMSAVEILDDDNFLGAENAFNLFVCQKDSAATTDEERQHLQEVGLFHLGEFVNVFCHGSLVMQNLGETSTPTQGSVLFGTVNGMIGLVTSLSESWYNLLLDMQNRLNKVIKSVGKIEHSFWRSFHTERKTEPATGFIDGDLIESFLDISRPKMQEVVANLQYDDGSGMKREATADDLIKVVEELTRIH

[3] = molecular target: T3, IKZF1 (Homo sapiens, UniProt Q13422+Q96SW2); test: as above; assay type: cell-based
T3 construct: effects of the compounds of the present disclosure on the expression of target proteins in cells; endogenous in cells; host or cells: human PBMCs (Milecell Biotechnologies)
T3 sequence (Q13422 whole entry): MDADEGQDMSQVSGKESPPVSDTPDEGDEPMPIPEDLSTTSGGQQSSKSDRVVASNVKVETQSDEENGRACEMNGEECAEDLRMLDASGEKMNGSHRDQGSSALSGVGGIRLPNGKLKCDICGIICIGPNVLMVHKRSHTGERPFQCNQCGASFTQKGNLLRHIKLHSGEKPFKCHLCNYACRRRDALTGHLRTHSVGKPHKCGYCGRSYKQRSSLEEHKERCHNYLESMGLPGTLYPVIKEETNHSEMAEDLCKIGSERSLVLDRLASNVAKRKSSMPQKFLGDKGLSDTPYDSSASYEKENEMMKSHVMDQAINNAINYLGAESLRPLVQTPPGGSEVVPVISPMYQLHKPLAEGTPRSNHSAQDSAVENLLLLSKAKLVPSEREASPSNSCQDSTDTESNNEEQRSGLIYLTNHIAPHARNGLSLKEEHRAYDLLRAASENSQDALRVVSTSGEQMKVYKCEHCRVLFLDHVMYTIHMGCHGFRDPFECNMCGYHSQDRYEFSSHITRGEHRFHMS
T3 sequence (Q96SW2 whole entry): as the sequence (Q96SW2 whole entry) above
T3 sequence (Q16531 whole entry partner): as the sequence (Q16531 whole entry partner) above

[4] = molecular target: T4, IKZF2 (Homo sapiens, UniProt Q96SW2+Q9UKS7); test: as above; assay type: cell-based
T4 construct: effects of the compounds of the present disclosure on the expression of target proteins in cells; endogenous in cells; host or cells: human PBMCs (Milecell Biotechnologies)
T4 sequence (Q9UKS7 whole entry): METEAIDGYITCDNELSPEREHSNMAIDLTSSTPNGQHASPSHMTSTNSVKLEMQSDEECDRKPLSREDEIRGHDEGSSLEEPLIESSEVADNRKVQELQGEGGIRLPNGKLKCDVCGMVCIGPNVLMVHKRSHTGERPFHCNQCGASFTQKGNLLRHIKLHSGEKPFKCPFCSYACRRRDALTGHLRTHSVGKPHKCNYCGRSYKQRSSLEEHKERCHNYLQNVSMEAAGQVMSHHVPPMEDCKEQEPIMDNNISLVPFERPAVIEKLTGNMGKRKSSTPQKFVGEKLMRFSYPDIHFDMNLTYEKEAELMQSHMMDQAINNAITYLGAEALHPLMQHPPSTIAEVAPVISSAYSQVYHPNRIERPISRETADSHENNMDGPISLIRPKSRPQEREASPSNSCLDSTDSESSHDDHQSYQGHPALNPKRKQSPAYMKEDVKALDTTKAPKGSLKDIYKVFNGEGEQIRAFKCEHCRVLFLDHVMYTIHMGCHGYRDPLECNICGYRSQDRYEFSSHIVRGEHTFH
T4 sequence (Q96SW2 whole entry): as the sequence (Q96SW2 whole entry) above
T4 sequence (Q16531 whole entry partner): as the sequence (Q16531 whole entry partner) above

[5] = molecular target: T5, IKZF3 (Homo sapiens, UniProt Q96SW2+Q9UKT9); test: as above; assay type: cell-based
T5 construct: effects of the compounds of the present disclosure on the expression of target proteins in cells; endogenous in cells; host or cells: human PBMCs (Milecell Biotechnologies)
T5 sequence (Q9UKT9 whole entry): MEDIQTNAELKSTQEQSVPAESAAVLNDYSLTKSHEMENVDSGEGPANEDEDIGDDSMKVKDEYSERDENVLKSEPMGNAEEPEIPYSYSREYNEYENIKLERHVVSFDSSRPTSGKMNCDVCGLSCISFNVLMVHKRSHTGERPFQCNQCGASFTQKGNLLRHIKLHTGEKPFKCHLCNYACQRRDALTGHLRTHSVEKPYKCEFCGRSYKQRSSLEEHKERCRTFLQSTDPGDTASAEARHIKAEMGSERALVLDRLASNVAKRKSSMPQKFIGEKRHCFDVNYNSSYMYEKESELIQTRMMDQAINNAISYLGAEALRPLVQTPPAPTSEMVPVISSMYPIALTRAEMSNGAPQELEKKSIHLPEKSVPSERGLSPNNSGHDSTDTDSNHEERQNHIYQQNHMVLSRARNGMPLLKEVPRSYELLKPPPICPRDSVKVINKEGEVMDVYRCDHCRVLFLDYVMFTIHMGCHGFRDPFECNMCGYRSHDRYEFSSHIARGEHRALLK
T5 sequence (Q96SW2 whole entry): as the sequence (Q96SW2 whole entry) above
T5 sequence (Q16531 whole entry partner): as the sequence (Q16531 whole entry partner) above

[6] = system: GSPT1; test: as above; assay type: cell-based, Human
[7] = molecular target: T6, human Cereblon WT GST-tagged protein (Homo sapiens, UniProt Q96SW2); test: CRBN-binding affinity, HTRF (CEREBLON BINDING kit); conditions: for inhibition at 0.5 µM: read-out: Inhibition Rate at 0.5 µM (%); for inhibition at 2 µM: read-out: Inhibition Rate at 2 µM (%); for IC50: CRBN binding, HTRF, 3 hours at room temperature, read-out: HTRF IC50
T6 construct: purchased CISBIO 64BDCRBNPEH
T6 sequence (Q96SW2 whole entry): as the sequence (Q96SW2 whole entry) above

[8] = Western blot, 24 hours of compound treatment, compounds tested at 50 nM and 500 nM (concentration for the table not stated)
[9] = 24 hours treatment, compounds at 50 nM and 500 nM (concentration behind the class not stated)

T1 sequence (P48729 whole entry): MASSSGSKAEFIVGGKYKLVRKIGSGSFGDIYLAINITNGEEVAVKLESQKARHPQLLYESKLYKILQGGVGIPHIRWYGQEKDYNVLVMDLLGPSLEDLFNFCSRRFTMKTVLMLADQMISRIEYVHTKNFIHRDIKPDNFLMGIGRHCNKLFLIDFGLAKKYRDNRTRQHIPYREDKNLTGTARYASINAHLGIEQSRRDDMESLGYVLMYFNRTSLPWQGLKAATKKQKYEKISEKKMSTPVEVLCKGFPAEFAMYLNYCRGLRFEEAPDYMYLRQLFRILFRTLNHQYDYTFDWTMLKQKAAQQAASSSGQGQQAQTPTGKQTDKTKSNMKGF
T1 sequence (Q96SW2 whole entry): as the sequence (Q96SW2 whole entry) above
T1 sequence (Q16531 whole entry partner): as the sequence (Q16531 whole entry partner) above

SMILES | CK1α substrate protein remaining % [1, 8] | Wee1 substrate protein remaining % [2, 8] | IKZF 1 substrate protein remaining % [3, 8] | IKZF2 substrate protein remaining % [4, 8] | IKZF3 substrate protein remaining % [5, 8] | GSPT1 substrate protein remaining % [6, 8] | inhibition at 0.5 µM [7] | inhibition at 2 µM [7] | CK1α substrate protein remaining % [1, 9] | Wee1 substrate protein remaining % [2, 9] | IKZF 1 substrate protein remaining % [3, 9] | IKZF2 substrate protein remaining % [4, 9] | IKZF3 substrate protein remaining % [5, 9] | GSPT1 substrate protein remaining % [6, 9] | IC50 [7]
O=C1CCC(N2Cc3cc(CN4CCN(c5c(Cl)ccnc5Cl)CC4)ccc3C2=S)C(=O)N1 (stereo not shown) [GT-09232, 3-(5-((4-(2,4-dichloropyridin-3-yl)piperazin-1-yl)methyl)-1-thioxoisoindolin-2-yl)piperidine-2,6-dione] | A (0% ≤ substrate protein remaining % ≤ 80%) | A (0% ≤ substrate protein remaining % ≤ 80%) | A (0% ≤ substrate protein remaining % ≤ 80%) | A (0% ≤ substrate protein remaining % ≤ 80%) | A (0% ≤ substrate protein remaining % ≤ 80%) | A (0% ≤ substrate protein remaining % ≤ 80%) | 60 to 80% | 80 to 100% | – | – | – | – | – | – | –
O=C1CCC(N2Cc3c(CN4CCN(c5ccc(F)cc5)CC4)cccc3C2=S)C(=O)N1 (stereo not shown) [GT-08264, 3-(4-((4-(4-fluorophenyl)piperazin-1-yl)methyl)-1-thioxoisoindolin-2-yl)piperidine-2,6-dione] | A (0% ≤ substrate protein remaining % ≤ 80%) | A (0% ≤ substrate protein remaining % ≤ 80%) | B (80%< substrate protein remaining %≤ 100%) | B (80%< substrate protein remaining %≤ 100%) | A (0% ≤ substrate protein remaining % ≤ 80%) | A (0% ≤ substrate protein remaining % ≤ 80%) | 40 to 53% | 80 to 100% | – | – | – | – | – | – | –
O=C1CCC(N2Cc3cc(CN4CCN(c5cc(Cl)ccn5)CC4)ccc3C2=S)C(=O)N1 (stereo not shown) [GT-09218, 3-(5-((4-(4-chloropyridin-2-yl)piperazin-1-yl)methyl)-1-thioxoisoindolin-2-yl)piperidine-2,6-dione] | B (80%< substrate protein remaining %≤ 100%) | B (80%< substrate protein remaining %≤ 100%) | B (80%< substrate protein remaining %≤ 100%) | B (80%< substrate protein remaining %≤ 100%) | B (80%< substrate protein remaining %≤ 100%) | A (0% ≤ substrate protein remaining % ≤ 80%) | 60 to 80% | 80 to 100% | – | – | – | – | – | – | –
Cc1sc2ncnc(C3=CCN(Cc4cccc5c4CN(C4CCC(=O)NC4=O)C5=S)CC3)c2c1C (stereo not shown) [GT-08955, 3-(4-((4-(5,6-dimethylthieno[2,3-d]pyrimidin-4-yl)-3,6-dihydropyridin-1(2H)-yl)methyl)-1-thioxoisoindolin-2-yl)piperidine-2,6-dione] | – | – | – | – | – | – | 40 to 53% | 60 to 80% | B (80%< substrate protein remaining %≤ 100%) | A (0% ≤ substrate protein remaining % ≤ 80%) | B (80%< substrate protein remaining %≤ 100%) | B (80%< substrate protein remaining %≤ 100%) | B (80%< substrate protein remaining %≤ 100%) | B (80%< substrate protein remaining %≤ 100%) | –
O=C1CCC(N2Cc3c(CN4CCN(C(c5ccc(Cl)cc5)c5ccc(Cl)cc5)CC4)cccc3C2=S)C(=O)N1 (stereo not shown) [GT-08203, 3-(4-((4-(bis(4-chlorophenyl)methyl)piperazin-1-yl)methyl)-1-thioxoisoindolin-2-yl)piperidine-2,6-dione] | B (80%< substrate protein remaining %≤ 100%) | A (0% ≤ substrate protein remaining % ≤ 80%) | B (80%< substrate protein remaining %≤ 100%) | A (0% ≤ substrate protein remaining % ≤ 80%) | A (0% ≤ substrate protein remaining % ≤ 80%) | A (0% ≤ substrate protein remaining % ≤ 80%) | 30 to 40% | 53 to 60% | – | – | – | – | – | – | –
CC1(C)CCC(CN2CC3CC(C2)N3Cc2ccc3c(c2)CN(C2CCC(=O)NC2=O)C3=S)=C(c2ccc(Cl)cc2)C1 (stereo not shown) [GT-08160, 3-(5-((3-((4'-chloro-5,5-dimethyl-3,4,5,6-tetrahydro-[1,1'-biphenyl]-2-yl)methyl)-3,6-diazabicyclo[3.1.1]heptan-6-yl)methyl)-1-thioxoisoindolin-2-yl)piperidine-2,6-dione] | – | – | – | – | – | – | 53 to 60% | 80 to 100% | B (80%< substrate protein remaining %≤ 100%) | A (0% ≤ substrate protein remaining % ≤ 80%) | B (80%< substrate protein remaining %≤ 100%) | A (0% ≤ substrate protein remaining % ≤ 80%) | A (0% ≤ substrate protein remaining % ≤ 80%) | A (0% ≤ substrate protein remaining % ≤ 80%) | –
O=C1CCC(N2Cc3cc(CN4CCN(c5nc(Cl)nc6c5SCC6)CC4)ccc3C2=S)C(=O)N1 (stereo not shown) [GT-09328, 3-(5-((4-(2-chloro-6,7-dihydrothieno[3,2-d]pyrimidin-4-yl)piperazin-1-yl)methyl)-1-thioxoisoindolin-2-yl)piperidine-2,6-dione] | – | – | – | – | – | – | 53 to 60% | 80 to 100% | B (80%< substrate protein remaining %≤ 100%) | B (80%< substrate protein remaining %≤ 100%) | B (80%< substrate protein remaining %≤ 100%) | A (0% ≤ substrate protein remaining % ≤ 80%) | B (80%< substrate protein remaining %≤ 100%) | B (80%< substrate protein remaining %≤ 100%) | –
O=C1CCC(N2Cc3ccccc3C2=S)C(=O)N1 (stereo not shown) [GT-05563, 3-(1-thioxoisoindolin-2-yl)piperidine-2,6-dione] | – | – | – | – | – | – | – | – | B (80%< substrate protein remaining %≤ 100%) | A (0% ≤ substrate protein remaining % ≤ 80%) | A (0% ≤ substrate protein remaining % ≤ 80%) | A (0% ≤ substrate protein remaining % ≤ 80%) | A (0% ≤ substrate protein remaining % ≤ 80%) | B (80%< substrate protein remaining %≤ 100%) | < 0.1 µM
O=C1CCC(N2Cc3c(CN4CCN(c5cccc(Cl)n5)CC4)cccc3C2=S)C(=O)N1 (stereo not shown) [GT-08693, 3-(4-((4-(6-chloropyridin-2-yl)piperazin-1-yl)methyl)-1-thioxoisoindolin-2-yl)piperidine-2,6-dione] | B (80%< substrate protein remaining %≤ 100%) | A (0% ≤ substrate protein remaining % ≤ 80%) | B (80%< substrate protein remaining %≤ 100%) | B (80%< substrate protein remaining %≤ 100%) | B (80%< substrate protein remaining %≤ 100%) | B (80%< substrate protein remaining %≤ 100%) | 60 to 80% | 80 to 100% | – | – | – | – | – | – | –
O=C1CCC(N2Cc3ccc(CN4CCN(C(c5ccccc5)c5ccccn5)CC4)cc3C2=S)C(=O)N1 (stereo not shown) [GT-05041, 3-(6-((4-(phenyl(pyridin-2-yl)methyl)piperazin-1-yl)methyl)-1-thioxoisoindolin-2-yl)piperidine-2,6-dione] | B (80%< substrate protein remaining %≤ 100%) | B (80%< substrate protein remaining %≤ 100%) | A (0% ≤ substrate protein remaining % ≤ 80%) | B (80%< substrate protein remaining %≤ 100%) | B (80%< substrate protein remaining %≤ 100%) | A (0% ≤ substrate protein remaining % ≤ 80%) | – | – | – | – | – | – | – | – | 1.5 to 1.9 µM
O=C1CCC(N2Cc3c(CN4CCC(c5cccs5)CC4)cccc3C2=S)C(=O)N1 (stereo not shown) [GT-08320, 3-(4-((4-(thiophen-2-yl)piperidin-1-yl)methyl)-1-thioxoisoindolin-2-yl)piperidine-2,6-dione] | – | – | – | – | – | – | 40 to 53% | 60 to 80% | B (80%< substrate protein remaining %≤ 100%) | A (0% ≤ substrate protein remaining % ≤ 80%) | B (80%< substrate protein remaining %≤ 100%) | B (80%< substrate protein remaining %≤ 100%) | A (0% ≤ substrate protein remaining % ≤ 80%) | B (80%< substrate protein remaining %≤ 100%) | –
C[C@@H]1CN(C(c2ccccc2)c2ccccc2)CCN1Cc1cccc2c1CN(C1CCC(=O)NC1=O)C2=S (stereo partly drawn) [GT-08232, 3-(4-(((R)-4-benzhydryl-2-methylpiperazin-1-yl)methyl)-1-thioxoisoindolin-2-yl)piperidine-2,6-dione] | B (80%< substrate protein remaining %≤ 100%) | A (0% ≤ substrate protein remaining % ≤ 80%) | B (80%< substrate protein remaining %≤ 100%) | A (0% ≤ substrate protein remaining % ≤ 80%) | B (80%< substrate protein remaining %≤ 100%) | A (0% ≤ substrate protein remaining % ≤ 80%) | 40 to 53% | 80 to 100% | – | – | – | – | – | – | –
